In experiment [1] the test system is Treg cells, CD4+ Tconv, CD8 T and NK cells in blood. Briefly: Dose-response pharmacodynamics study in mice following a single injection. It is filed as in vivo, mouse. On the procedure: Following a single subcutaneous administration of vehicle (PBS) or P-0511 (1, 0.3, 0.1, or 0.03 mg/kg) to female Balb/C mice (n=5/group), peripheral blood was collected on day-2 as baseline, and post dose on days 3, 5, and 7. On day 7, mice were sacrificed, and spleens were harvested. Blood lymphocyte phenotyping, proliferation and expansion were measured by flow cytometry at each timepoint using fresh whole blood.

The target of experiment [2] is T1, non-covalent complex of IL-2Rβ-ECD (NP_000869) and γc-ECD (NP_000197) (Homo sapiens, UniProt P14784+P31785).
T1 construct: non-covalent complex of IL-2Rβ-ECD (NP_000869) and γc-ECD (NP_000197)
T1 sequence (P14784 27-240 limits assumed): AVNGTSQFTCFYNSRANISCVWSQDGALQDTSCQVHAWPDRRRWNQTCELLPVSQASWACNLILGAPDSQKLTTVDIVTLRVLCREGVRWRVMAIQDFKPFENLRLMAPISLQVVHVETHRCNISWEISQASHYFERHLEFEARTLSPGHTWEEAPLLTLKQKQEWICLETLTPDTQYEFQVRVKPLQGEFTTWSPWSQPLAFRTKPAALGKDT
T1 sequence (P31785 23-262 limits assumed): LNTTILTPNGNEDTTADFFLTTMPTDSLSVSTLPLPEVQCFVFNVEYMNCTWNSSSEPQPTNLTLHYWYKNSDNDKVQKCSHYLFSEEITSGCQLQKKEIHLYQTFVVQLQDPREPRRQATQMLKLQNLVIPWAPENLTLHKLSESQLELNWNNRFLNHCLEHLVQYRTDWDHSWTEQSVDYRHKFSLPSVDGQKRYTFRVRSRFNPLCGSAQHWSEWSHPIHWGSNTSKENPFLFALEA
The experiment in a line: ELISA binding to IL-2Rβ and γc complex. On the procedure:
Briefly, non-covalent complex of IL-2Rβ-ECD (NP_000869) and γc-ECD (NP_000197) through heterodimeric Fc chains was coated onto the wells of Nunc Maxisorp 96-well microplates at 2 μg/well. After overnight incubation at 4° C. and blocking with superblock (ThermoFisher), 3-fold serial dilutions of IL-2 Fc fusion proteins starting at either 100 or 270 nM were added to each well at 100 μl/well. Following a one-hour incubation at room temperature, biotin mouse anti-human IL-2 Ab (BD BioSciences) at 1 μg/ml was added to each well followed by incubation with HRP-Avidin (ThermoFisher) at 1 μg/ml for 1 hour. Wells were thoroughly aspirated and washed three times with PBS/0.05% Tween-20 following each step. Finally, 100 μl TMB substrate was added to each well; the plate was developed at room temperature in the dark for 10 minutes, and 100 μl/well of stop solution (2N Sulfuric acid, Ricca Chemical) was added. Absorbance was determined at 450 nm; curves were fit using Prism software (GraphPad) and illustrated in FIG. 11E.

The subject of a further experiment is Treg cells in blood. Briefly: Pharmacodynamics study in mice following repeated administration (Q3D). It is filed as in vivo, mouse. To be noted: 0.3 mg/kg s.c. Q3D x3; compared to P-0531 and Benchmark-1. The protocol:
Female Balb/C mice (7-week old) were acclimated in house for 5-7 days before the study. Vehicle (PBS), 0.3 mg/kg of P-0511, P-0512, P-0531, or Benchmark-1 compound were subcutaneously administered to mice (n=5/group) on days 0, 3, and 6. On days 3 and 9, three days after the first injection and multiple (3) injections, respectively, peripheral blood was collected. Based on earlier in vivo experiments, Treg cell activation, proliferation, and expansion were expected to peak on day 3, and thus three days post injection was selected for data collection and analysis. Changes in blood lymphocyte activation, proliferation, and expansion were measured by flow cytometry. P-0531 is the S125I equivalent of the wild type IL-2 fusion protein. The Benchmark-1 contains V91K mutation.

Experiment [3] has as its system delayed-type hypersensitivity (DTH) mouse model. Briefly: KLH-induced delayed-type hypersensitivity (DTH) mouse model, ear thickness. Format: in vivo. To be noted: for inhibition of ear inflammation (KLH-induced DTH), separate study: Q5D. The protocol: The ability of Treg cells induced by IL-2 variants to suppress T cell antigen-driven inflammation in vivo was assessed in a model of delayed-type hypersensitivity (DTH). Female Balb/C mice (7-week old) were acclimated in house for 7 days and randomized into groups. Subcutaneous administration of vehicle (PBS), P-0511 at either 0.1 mg/kg or 0.3 mg/kg was initiated on day-2 and was given either once every 3 days (Q3D) for three injections or once every 5 days (Q5D) for two injections. Mice were then sensitized with a subcutaneous administration of 100 μg keyhole limpet hemocyanin (KLH) in 200 μl saline on day 0. For Q3D dosing, two more subcutaneous injections of PBS or P-0511 (0.1 or 0.3 mg/kg) were administered on days 1 and 4; for Q5D dosing, one additional s.c. injection of PBS, 0.1 or 0.3 mg/kg P-0511 was administered on day 3. Mice received an intradermal challenge of KLH (5 μg in 10 μl saline) in right ear on day 5. Right ear thickness was measured using a caliper on day 5 prior KLH challenge and daily from day 6 to day 8 corresponding to 24 h, 48h, and 72 h post KLH challenge. One group of mice also received 5 mg/kg daily i.p. treatment of dexamethasone from day 5 to day 8 as a positive control.
Kinetics of the DTH response using the change in ear thickness relative to baseline values (Δ ear thickness) at various times after KLH challenge was illustrated in FIG. 23.
In a separate study, dose-dependent response of P-0511 (0.1, 0.3 and 1 mg/kg, Q5D) on suppression of KLH-induced DTH was determined and compared with Benchmark-1 (0.3 mg/kg, Q5D).

In experiment [4] the test system is STAT5 phosphorylation in CD4+/Foxp3+/CD25+ Treg, CD4+/Foxp3-/CD25+ CD4 effector and CD4+/Foxp3-/CD25- CD4 naive T cell subsets. The experiment in a line: STAT5 phosphorylation in three CD4+ T cell subsets, human PBMC. Format: cell-based. The note with it: FIG. 9. The protocol: After human PBMC Cells were treated with serial dilutions of test compounds, fixed and permeabilized, washed, and stained with a mixture of anti-CD25-PE, anti-FOXP3-APC, anti-pSTAT5-FITC, and anti-CD4-PerCP-Cy5.5 antibodies, the flow cytometry analysis was gated into CD4+/Foxp3+/CD25+, CD4+/Foxp3−/CD25+, CD4+/Foxp3−/CD25− groups for the Treg, CD4 effector, and CD4 naive T cell subsets, respectively. Data are expressed as a percent of pSTAT5 positive cells in gated population and illustrated in FIG. 9.

Turning to “P-0511: Fc fusion protein of IL-2 variant L19H/S125I/Q126E; SEQ ID NO: 198”, the “Treg/Tconv ratio, peak (based on cell count)” value stood at 0.06 in experiment [1] (0.1 mg/kg single dose), 0.18 in experiment [1] (0.3 mg/kg single dose) and 0.27 in experiment [1] (1 mg/kg single dose). The “percentages of CD4+ Tconv, CD8 Teff or NK cells over the total lymphocytes” value in experiment [1] (0.03-1 mg/kg single dose) is given as “no statistically significant changes”. In experiment [2], the “EC50, binding to IL-2Rβ and γc complex (ELISA)” value is “did not show appreciable binding”. In the experiment with Treg cells in blood, the “Treg cell counts, fold changes relative to PBS and Treg/Tconv ratio” value is “superior capabilities to sustain Treg pool”. In addition, the “suppression of antigen-driven inflammation (Δ ear thickness)” value in experiment [3] (0.1 mg/kg s.c., Q3D and Q5D) is “did not reach statistical significance”; in experiment [3] (0.3 mg/kg s.c., Q3D or Q5D, all time points post KLH challenge) it was “evident”. The “inhibition of ear inflammation (KLH-induced DTH), separate study” value in experiment [3] (0.1 mg/kg) is listed as “mild”; in experiment [3] (0.3 mg/kg) it was “Intermediate”; in experiment [3] (1 mg/kg) it was “strong resistance to KLH-induced DTH”. The “pSTAT5 potency and selectivity in Treg, Teff and naive CD4 T cell subsets (in words)” value in experiment [4] was “preferential activation of Treg over Teff”; in experiment [4] (listed as P-511), “superior to both Benchmark-2 and -3”.

For the origin of these results see patent US12152060B2, “Interleukin-2 variants and methods of uses thereof” (Cugene Inc, priority 2018, dated 2024).
